Measurements reported in US20150005281A1, “PYRIMIDINE-2,4-DIAMINE DERIVATIVES AS KINASE INHIBITORS” (Cellzome Limited, priority 2011, published 2015).
Where a name gives a salt, the structure may show the parent alone.

Key:
Assay type in all cases: binding
JAK3 = target: T1, JAK3 (Homo sapiens, UniProt P52333); assay: Kinobeads assay with immunodetection, JAK3; conditions: for IC50: Kinobeads assay, mixed Molt4/Ramos lysate, read-out: Inhibition values (IC50) JAK3
T1 construct: endogenous in cells; host or cells: Molt4 (ATCC CRL-1582) and Ramos (ATCC CRL-1596) cells; mixed lysate 1:2
T1 sequence (P52333 1-1124): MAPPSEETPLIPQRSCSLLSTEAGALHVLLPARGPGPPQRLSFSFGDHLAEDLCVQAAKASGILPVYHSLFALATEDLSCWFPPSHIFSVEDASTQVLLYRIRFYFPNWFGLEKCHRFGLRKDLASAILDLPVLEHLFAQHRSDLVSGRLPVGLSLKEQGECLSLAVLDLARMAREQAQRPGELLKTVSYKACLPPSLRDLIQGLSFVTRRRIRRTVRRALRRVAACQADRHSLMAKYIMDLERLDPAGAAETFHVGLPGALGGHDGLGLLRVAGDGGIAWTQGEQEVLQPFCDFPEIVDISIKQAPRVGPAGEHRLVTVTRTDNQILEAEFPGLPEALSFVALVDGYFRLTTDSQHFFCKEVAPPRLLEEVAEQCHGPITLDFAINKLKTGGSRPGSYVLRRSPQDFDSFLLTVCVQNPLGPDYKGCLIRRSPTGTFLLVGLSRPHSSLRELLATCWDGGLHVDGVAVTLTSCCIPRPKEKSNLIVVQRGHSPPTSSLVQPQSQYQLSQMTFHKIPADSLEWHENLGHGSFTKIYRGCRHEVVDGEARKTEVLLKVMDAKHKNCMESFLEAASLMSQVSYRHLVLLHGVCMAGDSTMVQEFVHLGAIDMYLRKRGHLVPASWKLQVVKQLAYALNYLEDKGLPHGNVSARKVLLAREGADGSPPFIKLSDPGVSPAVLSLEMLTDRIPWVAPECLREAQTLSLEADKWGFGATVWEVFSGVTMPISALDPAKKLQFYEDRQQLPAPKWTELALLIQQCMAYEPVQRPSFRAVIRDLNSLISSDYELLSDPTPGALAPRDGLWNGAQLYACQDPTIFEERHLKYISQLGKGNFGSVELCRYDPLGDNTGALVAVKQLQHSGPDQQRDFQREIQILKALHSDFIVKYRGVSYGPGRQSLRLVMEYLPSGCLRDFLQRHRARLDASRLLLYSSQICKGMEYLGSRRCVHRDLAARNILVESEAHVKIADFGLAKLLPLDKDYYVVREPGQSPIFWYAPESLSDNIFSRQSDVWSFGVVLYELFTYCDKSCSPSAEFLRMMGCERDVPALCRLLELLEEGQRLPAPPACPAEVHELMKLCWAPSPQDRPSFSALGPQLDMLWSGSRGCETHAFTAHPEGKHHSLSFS
Outline: (§1)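 Inhibition of kinase capture on aminopyrido-pyrimidine beads was measured after a 3 h cold incubation in mixed human leukemia and lymphoma cell lysate. Bound kinase was quantified by immunodetection and IC50s were calculated.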

JAK2 = target: T2, JAK2 (Homo sapiens, UniProt O60674); assay: Kinobeads assay with immunodetection, JAK2; conditions: mixed Molt4/Ramos lysate, read-out: Inhibition values (IC50) JAK2
T2 construct: endogenous in cells; host or cells: Molt4 (ATCC CRL-1582) and Ramos (ATCC CRL-1596) cells; mixed lysate 1:2
Outline: as §1

TYK2 = target: T3, TYK2 (Homo sapiens, UniProt P29597); assay: Kinobeads assay with immunodetection, TYK2; conditions: for IC50: Kinobeads assay, mixed Molt4/Ramos lysate, read-out: Inhibition values (IC50) Tyk2
T3 construct: endogenous in cells; host or cells: Molt4 (ATCC CRL-1582) and Ramos (ATCC CRL-1596) cells; mixed lysate 1:2
Outline: as §1

JAK1 = target: T4, JAK1 (Homo sapiens, UniProt P23458); assay: Kinobeads assay with immunodetection, JAK1; conditions: for IC50: Kinobeads assay, mixed Molt4/Ramos lysate, read-out: Inhibition values (IC50) JAK1
T4 construct: endogenous in cells; host or cells: Molt4 (ATCC CRL-1582) and Ramos (ATCC CRL-1596) cells; mixed lysate 1:2
Outline: as §1

T3 sequence (P29597 whole entry): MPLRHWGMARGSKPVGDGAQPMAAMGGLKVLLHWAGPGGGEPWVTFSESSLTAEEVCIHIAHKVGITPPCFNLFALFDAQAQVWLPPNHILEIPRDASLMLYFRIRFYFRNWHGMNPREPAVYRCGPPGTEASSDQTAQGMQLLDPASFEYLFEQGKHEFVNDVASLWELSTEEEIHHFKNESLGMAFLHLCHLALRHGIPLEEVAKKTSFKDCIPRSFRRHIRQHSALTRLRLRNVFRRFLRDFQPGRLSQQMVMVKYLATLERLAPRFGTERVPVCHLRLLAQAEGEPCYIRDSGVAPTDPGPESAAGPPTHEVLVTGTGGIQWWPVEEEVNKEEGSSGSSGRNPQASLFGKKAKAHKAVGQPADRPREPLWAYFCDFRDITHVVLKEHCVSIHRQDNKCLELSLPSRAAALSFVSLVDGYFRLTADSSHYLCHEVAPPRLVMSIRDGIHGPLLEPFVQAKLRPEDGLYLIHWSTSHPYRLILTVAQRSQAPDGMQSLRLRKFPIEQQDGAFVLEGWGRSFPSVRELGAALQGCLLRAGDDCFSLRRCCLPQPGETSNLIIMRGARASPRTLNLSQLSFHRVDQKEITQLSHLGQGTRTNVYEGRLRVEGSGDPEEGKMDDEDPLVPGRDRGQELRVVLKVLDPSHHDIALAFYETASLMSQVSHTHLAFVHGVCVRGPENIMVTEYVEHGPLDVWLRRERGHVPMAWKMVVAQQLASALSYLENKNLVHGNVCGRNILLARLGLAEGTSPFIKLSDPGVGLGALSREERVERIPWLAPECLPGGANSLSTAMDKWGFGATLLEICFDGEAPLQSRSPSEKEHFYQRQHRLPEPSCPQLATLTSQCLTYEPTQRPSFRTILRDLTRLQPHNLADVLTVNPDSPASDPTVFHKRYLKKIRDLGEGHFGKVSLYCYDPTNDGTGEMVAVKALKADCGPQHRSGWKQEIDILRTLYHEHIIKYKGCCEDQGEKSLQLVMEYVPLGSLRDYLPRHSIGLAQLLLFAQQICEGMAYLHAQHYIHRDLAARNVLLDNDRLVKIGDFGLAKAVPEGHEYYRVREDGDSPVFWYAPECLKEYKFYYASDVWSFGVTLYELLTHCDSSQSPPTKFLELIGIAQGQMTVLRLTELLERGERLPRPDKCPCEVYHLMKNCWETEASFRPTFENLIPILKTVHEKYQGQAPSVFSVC
T2 sequence (O60674 whole entry): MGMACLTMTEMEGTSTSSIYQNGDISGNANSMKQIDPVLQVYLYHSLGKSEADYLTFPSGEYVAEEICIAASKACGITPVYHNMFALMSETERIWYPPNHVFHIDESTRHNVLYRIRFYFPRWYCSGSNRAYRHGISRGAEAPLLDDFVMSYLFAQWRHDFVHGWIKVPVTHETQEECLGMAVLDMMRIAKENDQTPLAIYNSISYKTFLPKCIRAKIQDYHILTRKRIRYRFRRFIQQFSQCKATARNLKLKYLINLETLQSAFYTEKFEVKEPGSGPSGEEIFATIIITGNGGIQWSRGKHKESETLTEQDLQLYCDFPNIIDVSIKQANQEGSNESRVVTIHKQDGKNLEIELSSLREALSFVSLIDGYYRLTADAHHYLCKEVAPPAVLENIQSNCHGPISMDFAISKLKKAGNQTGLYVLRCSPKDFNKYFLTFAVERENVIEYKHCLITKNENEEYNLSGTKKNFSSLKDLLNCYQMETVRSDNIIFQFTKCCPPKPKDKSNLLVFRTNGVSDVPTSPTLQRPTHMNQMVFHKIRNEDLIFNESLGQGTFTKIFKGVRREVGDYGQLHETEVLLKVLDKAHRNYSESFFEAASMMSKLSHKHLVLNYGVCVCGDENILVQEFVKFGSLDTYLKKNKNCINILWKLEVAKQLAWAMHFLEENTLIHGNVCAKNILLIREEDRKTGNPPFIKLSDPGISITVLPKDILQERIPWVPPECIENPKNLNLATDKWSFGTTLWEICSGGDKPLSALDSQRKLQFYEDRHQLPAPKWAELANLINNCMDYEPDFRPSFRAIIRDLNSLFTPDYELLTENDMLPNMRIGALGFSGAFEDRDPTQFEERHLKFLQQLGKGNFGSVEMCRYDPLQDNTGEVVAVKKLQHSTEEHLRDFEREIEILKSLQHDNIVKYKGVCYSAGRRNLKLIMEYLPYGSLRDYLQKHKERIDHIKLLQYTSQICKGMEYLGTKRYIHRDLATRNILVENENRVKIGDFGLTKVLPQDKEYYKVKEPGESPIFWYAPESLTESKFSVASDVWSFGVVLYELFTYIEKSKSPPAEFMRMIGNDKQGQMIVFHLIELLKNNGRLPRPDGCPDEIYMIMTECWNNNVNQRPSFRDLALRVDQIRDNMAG
T4 sequence (P23458 whole entry): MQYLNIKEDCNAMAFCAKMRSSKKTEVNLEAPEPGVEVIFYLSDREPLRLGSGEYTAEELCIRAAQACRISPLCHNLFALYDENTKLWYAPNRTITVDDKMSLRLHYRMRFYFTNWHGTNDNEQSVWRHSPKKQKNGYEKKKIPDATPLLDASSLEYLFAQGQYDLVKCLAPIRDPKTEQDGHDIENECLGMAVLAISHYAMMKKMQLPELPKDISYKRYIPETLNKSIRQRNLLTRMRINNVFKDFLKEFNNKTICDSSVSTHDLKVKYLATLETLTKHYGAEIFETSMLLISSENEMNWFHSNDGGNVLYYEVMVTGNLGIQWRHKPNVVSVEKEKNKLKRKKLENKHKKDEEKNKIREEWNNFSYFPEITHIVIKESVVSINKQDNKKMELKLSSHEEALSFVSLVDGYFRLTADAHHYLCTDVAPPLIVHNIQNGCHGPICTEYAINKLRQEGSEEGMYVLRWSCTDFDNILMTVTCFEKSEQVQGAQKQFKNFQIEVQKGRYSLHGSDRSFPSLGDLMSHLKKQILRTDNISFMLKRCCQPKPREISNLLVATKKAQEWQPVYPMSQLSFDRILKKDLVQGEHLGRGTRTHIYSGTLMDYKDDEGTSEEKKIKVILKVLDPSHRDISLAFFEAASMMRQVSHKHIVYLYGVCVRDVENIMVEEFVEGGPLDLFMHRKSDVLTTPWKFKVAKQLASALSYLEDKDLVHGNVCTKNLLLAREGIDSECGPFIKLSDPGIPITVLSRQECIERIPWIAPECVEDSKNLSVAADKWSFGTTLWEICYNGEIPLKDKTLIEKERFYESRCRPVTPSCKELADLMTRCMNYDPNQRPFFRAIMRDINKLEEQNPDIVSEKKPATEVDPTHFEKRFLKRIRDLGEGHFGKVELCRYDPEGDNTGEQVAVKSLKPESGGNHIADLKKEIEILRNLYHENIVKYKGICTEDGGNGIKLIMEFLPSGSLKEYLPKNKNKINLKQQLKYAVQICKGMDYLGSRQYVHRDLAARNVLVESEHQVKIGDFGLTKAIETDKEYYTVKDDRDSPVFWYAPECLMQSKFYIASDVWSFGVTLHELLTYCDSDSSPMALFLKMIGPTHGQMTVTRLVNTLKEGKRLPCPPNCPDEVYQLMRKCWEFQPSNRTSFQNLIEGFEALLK

| Compound | IC50 (JAK3) | IC50 (JAK2) | IC50 (TYK2) | Selectivity ratio over JAK2, JAK1 (JAK1) | IC50 (JAK1) | Selectivity ratio over JAK2, JAK3 (JAK3) | Selectivity ratio over JAK2, Tyk2 (TYK2) |
| --- | --- | --- | --- | --- | --- | --- | --- |
| CC(=O)N1CC[C@@H](CNc2nc(Nc3cnn(CCO)c3)ncc2Cl)C1 [Example 27, (S)-1-(3-(((5-chloro-2-((1-(2-hydroxyethyl)-1H-pyrazol-4-yl)amino)pyrimidin-4-yl)amino)methyl)pyrrolidin-1-yl)ethanone] | 100 to 1000 nM | 1000 to 10000 nM | 100 to 1000 nM | JAK1 = 23 | 100 to 1000 nM |  |  |
| Cc1cnc(Nc2cnn(C)c2)nc1NC[C@H]1CCN(C(=O)CCC#N)C1 [Example 111, (R)-4-(3-(((5-methyl-2-((1-methyl-1H-pyrazol-4-yl)amino)pyrimidin-4-yl)amino)methyl)pyrrolidin-1-yl)-4-oxobutanenitrile] | 1000 to 10000 nM | 1000 to 10000 nM | < 100 nM | JAK1 = 55 | < 100 nM |  |  |
| Cn1cc(Nc2ncc(Cl)c(NC[C@H]3CCCN(C(=O)CCC#N)C3)n2)cn1 [Example 138, (R)-4-(3-(((5-chloro-2-((1-methyl-1H-pyrazol-4-yl)amino)pyrimidin-4-yl)amino)methyl)piperidin-1-yl)-4-oxobutanenitrile] | < 100 nM | 100 to 1000 nM | < 100 nM |  | < 100 nM | JAK3 = 23 |  |
| Cc1cnc(Nc2cnn(C)c2)nc1NC[C@H]1CCCN1 [Example 72, (R)-5-methyl-N^2-(1-methyl-1H-pyrazol-4-yl)-N^4-(pyrrolidin-2-ylmethyl)pyrimidine-2,4-diamine Hydrochloride] | > 10000 nM | > 10000 nM | > 10000 nM |  | 1000 to 10000 nM |  |  |
| Cc1cnc(Nc2cnn(CC(F)F)c2)nc1NC[C@@H]1C[C@H](F)CN1C(=O)CCC#N [Example 122, 4-((2S,4S)-2-(((2-((1-(2,2-difluoroethyl)-1H-pyrazol-4-yl)amino)-5-methylpyrimidin-4-yl)amino)methyl)-4-fluoropyrrolidin-1-yl)-4-oxobutanenitrile] | 1000 to 10000 nM | 1000 to 10000 nM | 100 to 1000 nM | JAK1 = 194 | < 100 nM |  |  |
| Cn1cc(Nc2ncc(Cl)c(NC[C@H]3CCN(CCO)C3)n2)cn1 [Example 56, (R)-2-(3-((5-chloro-2-(1-methyl-1H-pyrazol-4-ylamino)pyrimidin-4-ylamino)methyl)pyrrolidin-1-yl)ethanol] | 1000 to 10000 nM | 1000 to 10000 nM | 1000 to 10000 nM | JAK1 = 46 | 100 to 1000 nM |  |  |
| CN(C)C(=O)Cn1cc(Nc2ncc(Cl)c(NC[C@@H]3CCCN3S(C)(=O)=O)n2)cn1 [Example 69, (S)-2-(4-(5-chloro-4-((1-(methylsulfonyl)pyrrolidin-2-yl)methylamino)pyrimidin-2-ylamino)-1H-pyrazol-1-yl)-N,N-dimethylacetamide] | < 100 nM | 100 to 1000 nM | < 100 nM |  | < 100 nM | JAK3 = 44 |  |
| C=CC(=O)N1CCCC[C@H]1CNc1nc(Nc2cnn(C)c2)ncc1Cl [Example 34, (S)-1-(2-(((5-chloro-2-((1-methyl-1H-pyrazol-4-yl)amino)pyrimidin-4-yl)amino)methyl)piperidin-1-yl)prop-2-en-1-one] | 1000 to 10000 nM | > 10000 nM | 1000 to 10000 nM |  | 100 to 1000 nM |  |  |
| Cn1cc(Nc2ncc(Cl)c(NC[C@@H]3CCCN3CCS(C)(=O)=O)n2)cn1 [Example 82, (S)-5-chloro-N^2-(1-methyl-1H-pyrazol-4-yl)-N^4-((1-(2-(methylsulfonyl)ethyl)pyrrolidin-2-yl)methyl)pyrimidine-2,4-diamine] | 100 to 1000 nM | < 100 nM | < 100 nM | JAK1 = 34 | < 100 nM |  |  |
| Cn1cc(Nc2ncc(Cl)c(NC[C@H]3CCCCN3S(C)(=O)=O)n2)cn1 [Example 43, (R)-5-chloro-N^2-(1-methyl-1H-pyrazol-4-yl)-N^4-((1-(methylsulfonyl)piperidin-2-yl)methyl)pyrimidine-2,4-diamine] | < 100 nM | 100 to 1000 nM | < 100 nM |  | 100 to 1000 nM | Jak3 = 18 |  |
| Cn1cc(Nc2ncc(Cl)c(NC[C@@H]3C[C@H](F)CN3CCS(C)(=O)=O)n2)cn1 [Example 91, 5-chloro-N^4-(((2S,4S)-4-fluoro-1-(2-(methylsulfonyl)ethyl)pyrrolidin-2-yl)methyl)-N^2-(1-methyl-1H-pyrazol-4-yl)pyrimidine-2,4-diamine] | < 100 nM | 100 to 1000 nM | < 100 nM | JAK1 = 27 | < 100 nM |  |  |
| C=CC(=O)N1CC[C@@H](CNc2nc(Nc3cnn(C)c3)ncc2Cl)C1 [Example 28, (S)-1-(3-(((5-chloro-2-((1-methyl-1H-pyrazol-4-yl)amino)pyrimidin-4-yl)amino)methyl)pyrrolidin-1-yl)prop-2-en-1-one] | 100 to 1000 nM | > 10000 nM | 1000 to 10000 nM |  | 1000 to 10000 nM |  |  |
| Cc1cnc(Nc2cnn(C)c2)nc1NC[C@H]1CCCN1CCC#N [Example 108, (R)-3-(2-(((5-methyl-2-((1-methyl-1H-pyrazol-4-yl)amino)pyrimidin-4-yl)amino)methyl)pyrrolidin-1-yl)propanenitrile] | 100 to 1000 nM | 1000 to 10000 nM | < 100 nM |  | 100 to 1000 nM |  | Tyk2 = 80 |
| Cn1cc(Nc2ncc(Cl)c(NC[C@H]3CCCN3C(=O)CC#N)n2)cn1 [Example 52, (R)-3-(2-((5-chloro-2-(1-methyl-1H-pyrazol-4-ylamino)pyrimidin-4-ylamino)methyl)pyrrolidin-1-yl)-3-oxopropanenitrile] | < 100 nM | 100 to 1000 nM | < 100 nM |  | < 100 nM |  | Tyk2 = 30 |
| C=CC(=O)N1CCCC[C@@H]1CNc1nc(Nc2cnn(C)c2)ncc1Cl [Example 41, (R)-1-(2-(((5-chloro-2-((1-methyl-1H-pyrazol-4-yl)amino)pyrimidin-4-yl)amino)methyl)piperidin-1-yl)prop-2-en-1-one] | 100 to 1000 nM | 100 to 1000 nM | 100 to 1000 nM |  | 100 to 1000 nM |  | Tyk2 = 6 |
| CNC(=O)Cn1cc(Nc2ncc(Cl)c(NC[C@H]3CCCN3S(C)(=O)=O)n2)cn1 [Example 67, (R)-2-(4-(5-chloro-4-((1-(methylsulfonyl)pyrrolidin-2-yl)methylamino)pyrimidin-2-ylamino)-1H-pyrazol-1-yl)-N-methylacetamide] | < 100 nM | < 100 nM | < 100 nM |  | < 100 nM |  | Tyk2 = 13 |
| Cn1cc(Nc2ncc(Cl)c(NC[C@@H]3CCCCN3S(C)(=O)=O)n2)cn1 [Example 36, (S)-5-chloro-N^2-(1-methyl-1H-pyrazol-4-yl)-N^4-((1-(methylsulfonyl)piperidin-2-yl)methyl)pyrimidine-2,4-diamine] | 100 to 1000 nM | 1000 to 10000 nM | 100 to 1000 nM |  | < 100 nM | JAK3 = 54 |  |
| CS(=O)(=O)N1CCCC[C@@H]1CNc1nc(Nc2cnn(CCO)c2)ncc1Cl [Example 44, (R)-2-(4-((5-chloro-4-(((1-(methylsulfonyl)piperidin-2-yl)methyl)amino)pyrimidin-2-yl)amino)-1H-pyrazol-1-yl)ethanol] | < 100 nM | 100 to 1000 nM | 100 to 1000 nM |  | 100 to 1000 nM | JAK3 = 20 |  |
| Cn1cc(Nc2ncc(Cl)c(NC[C@H]3CCCN3C(=O)CO)n2)cn1 [Example 54, (R)-1-(2-((5-chloro-2-(1-methyl-1H-pyrazol-4-ylamino)pyrimidin-4-ylamino)methyl)pyrrolidin-1-yl)-2-hydroxyethanone] | 100 to 1000 nM | 100 to 1000 nM | < 100 nM |  | < 100 nM |  | Tyk2 = 12 |
